# US20230116399A1, “Tumor Homing Statin Derivatives” (Da Zen Theranostics, Inc., priority 2019, published 2023)
# Test system: H446 human small cell lung cancer (SCLC) cells
# Test: Mouse xenograft model, H446 SCLC
# Type: in vivo, mice
# Conditions: 2.8 mg/kg, twice a week via i.p. injection, 52 days
# Protocol: Example 10: THSD (ALSD and ELSD, respectively) are tested in vivo in a mouse xenograft model for human lung cancer. The example is essentially performed as described for example 9 with the following modifications: human SCLC H446 cancer cells are used, and the tested agents include two statin conjugates (compounds of formula FId/compound 14 or “DZ2b” and FIId/compound 7 or “DZ2a”, respectively, designated “DZ-SIM-Ester” or “DZ-SIM-Amide” in FIG. 10), and a non-statin conjugate (“DZ-DHA”). SCLC H446 cells (1.5×10^6) are subcutaneously implanted on the bilateral flanks of athymic nude mice at age of 5 weeks. 10 days post cell implantation, mice are treated with DZ1 (2.8 mg/kg), SIM (2 mg/kg), DZ1-SIM-Amide/compound 7 or DZ1-SIM-Ester/compound 14 (4 mg/kg), and DZ1-DHA (4 mg/kg, DZ1-dihydroartemisinin ester “DZ1-DHA”, as shown in FIG. 11), twice a week via i.p. injection. (A) Tumor sizes are measured by caliper every four days during the treatment period of 52 days, and volumes are calculated using formula […] as described in example 9 above. Confidence levels are indicated as *P<0.05, **P<0.01, ***P<0.0005.
compound,measurement,value
CC1(C)C(/C=C/C2=C(Cl)C(=C/C=C3/N(CCCCCC(=O)O)c4ccccc4C3(C)C)/CCC2)=[N+](CCCCS(=O)(=O)[O-])c2ccccc21 [DZ1],mean tumor volume / growth inhibition,steep increase in tumor volume
